Source: US20050113286A1, “Methods for treating congestive heart failure” (priority 2002, published 2005)

System: patients with chronic decompensated HF
Assay: FUSION I: clinical outcomes (death, hospitalization, days alive and out of hospital) through 12 weeks
Format: in vivo, human
Method: In this multicenter, open-label, pilot study, patients were randomly assigned to 1 of 3 treatment groups in a 1:1:1 ratio: (1) usual care, as determined by the investigating physician; (2) usual care plus nesiritide 0.005 μg/kg/min given for 4 to 6 hours, preceded by a 1.0-μg/kg bolus; or (3) usual care plus nesiritide 0.01 μg/kg/min given for 4 to 6 hours, preceded by a 2.0-μg/kg bolus (FIG. 1). The study treatment period was 12 weeks with an additional 4 weeks of follow-up. Nesiritide (Natrecor®) was supplied by Scios Inc., Fremont, Calif. Informed consent was obtained from each patient prior to enrollment, and the Ethics Committee of each institution prospectively approved the study.
The primary goal of this open-label study was to assess the safety and tolerability of different nesiritide doses administered as serial outpatient infusions. Safety and tolerability were measured through investigator reporting of adverse events (AEs), serious AEs, discontinuations of study infusions, laboratory assessments, and vital signs. An AE was defined as any new onset or worsening of any medical condition since study entry. A serious AE were those AEs, which lead to death, hospitalization, or prolonged hospitalization. The effect of nesiritide infusions on renal function was also monitored as a safety variable, with renal AEs defined as increased blood urea nitrogen (BUN) or serum creatinine levels (determined by investigator's discretion), onset of oliguria, or occurrence of acute renal failure. Clinical events were followed to further evaluate safety and tolerability.
To characterize treatment groups with respect to known prognostic factors for hospitalization or death, patients were prospectively stratified using a Risk Assessment Score (RAS). Two levels of risk were defined: patients with an RAS≧4 (i.e., with 4 or more of the 7 risk factors) and patients with an RAS<4. Risk factors utilized were: (1) serum creatinine of >2.0 mg/dl in the preceding 30 days; (2) NYHA class IV for the preceding 60 days; (3)≧65 years old; (4) history of sustained ventricular tachycardia; (5) ischemic etiology of HF; (6) diabetes; and (7) outpatient use of nesiritide or inotropic agents in preceding 6 months.
The effect of treatment was assessed with a 2-way ANOVA, an F test, a stratified Wilcoxon test, a Wilcoxon test, or the generalized Fisher's exact test, depending on the distribution of the variable. Kaplan-Meier estimates of the survival curves for morbidity/mortality time-to-event data were calculated. A log-rank or stratified log-rank test was used for comparisons between 2 treatment groups.

[1] = RAS ≧4 patients, 0.005 μg/kg/min, n = 24, through 12 weeks
[2] = RAS ≧4 patients, 0.01 μg/kg/min, n = 20, through 12 weeks
[3] = RAS ≧4 patients, both nesiritide groups, n = 44, through 12 weeks
[4] = all patients, 0.005 μg/kg/min, n = 72, through 12 weeks
[5] = all patients, 0.01 μg/kg/min, n = 69, through 12 weeks
[6] = all patients, both nesiritide groups, n = 141, through 12 weeks
[7] = baseline NYHA class IV, 0.005 μg/kg/min, n = 25
[8] = baseline NYHA class IV, 0.01 μg/kg/min, n = 22
[9] = baseline NYHA class IV, both nesiritide groups, n = 47
[10] = baseline NYHA class IV, both nesiritide groups, n = 47, p = 0.148 compared with usual care
[11] = lowest serum creatinine >2.0 mg/dL during 30 days prior to the study, 0.005 μg/kg/min, n = 13
[12] = lowest serum creatinine >2.0 mg/dL during 30 days prior to the study, 0.01 μg/kg/min, n = 14
[13] = lowest serum creatinine >2.0 mg/dL during 30 days prior to the study, both nesiritide groups, n = 27
[14] = lowest serum creatinine >2.0 mg/dL during 30 days prior to the study, both nesiritide groups, n = 27, p = 0.176 compared with usual care

## Nesiritide: a recombinant form of human B-type natriuretic peptide (BNP)
NYHA class IV status
  Hospitalizations compared with usual care: trend towards a reduction
[1]
  All-cause death and hospitalization, % of patients: 42%
  All-cause death and hospitalization, number of patients: 10
  All-cause hospitalization, % of patients: 42%
  All-cause hospitalization, number of patients: 10
  Days alive and out of hospital, 25th percentile: 74.6 days
  Days alive and out of hospital, Mean ± SD: 76.3 ± 16.8 days
  Deaths, % of patients: 4%
  Deaths, number of patients: 1
[2]
  All-cause death and hospitalization, % of patients: 65%
  All-cause death and hospitalization, number of patients: 13
  All-cause hospitalization, % of patients: 60%
  All-cause hospitalization, number of patients: 12
  Days alive and out of hospital, 25th percentile: 75.3 days
  Days alive and out of hospital, Mean ± SD: 77.2 ± 14.0 days
  Deaths, % of patients: 5%
  Deaths, number of patients: 1
[3]
  All-cause death and hospitalization, % of patients: 52%
  All-cause death and hospitalization, number of patients: 23
  All-cause hospitalization, % of patients: 50%
  All-cause hospitalization, number of patients: 22
  Days alive and out of hospital, 25th percentile: 75.0 days
  Days alive and out of hospital, Mean ± SD: 76.7 ± 15.5 days
  Deaths, % of patients: 5%
  Deaths, number of patients: 2
RAS≧4 cohort, p=0.027
  Days alive and out of the hospital compared to the usual care group: statistically significant increase
RAS≧4 patients
  Deaths or hospitalizations compared with usual care only: statistically significantly fewer
[4]
  All-cause death and hospitalization, % of patients: 46%
  All-cause death and hospitalization, number of patients: 33
  All-cause hospitalization, % of patients: 44%
  All-cause hospitalization, number of patients: 32
  Days alive and out of hospital, 25th percentile: 74.2 days
  Days alive and out of hospital, Mean ± SD: 76.1 ± 15.3 days
  Deaths, % of patients: 8%
  Deaths, number of patients: 6
[5]
  All-cause death and hospitalization, % of patients: 49%
  All-cause death and hospitalization, number of patients: 34
  All-cause hospitalization, % of patients: 48%
  All-cause hospitalization, number of patients: 33
  Days alive and out of hospital, 25th percentile: 79.0 days
  Days alive and out of hospital, Mean ± SD: 78.9 ± 10.9 days
  Deaths, % of patients: 4%
  Deaths, number of patients: 3
[6]
  All-cause death and hospitalization, % of patients: 48%
  All-cause death and hospitalization, number of patients: 67
  All-cause hospitalization, % of patients: 46%
  All-cause hospitalization, number of patients: 65
  Days alive and out of hospital, 25th percentile: 77.6 days
  Days alive and out of hospital, Mean ± SD: 77.5 ± 13.3 days
  Deaths, % of patients: 6%
  Deaths, number of patients: 9
All patients, each nesiritide dose group and all nesiritide group
  Deaths or hospitalizations compared with usual-care group: no statistically significant differences
All patients, p=0.131
  Days alive and out of the hospital compared with usual-care patients: trends for increasing days alive and out of the hospital
[7]
  Days alive and out of hospital, Mean ± SD: 73.3 ± 18.4 days
  Days alive and out of hospital, Median: 84 days
  Patient deaths, %: 8%
  Patient deaths, number: 2
  Patients hospitalized, %: 48%
  Patients hospitalized, number: 12
[8]
  Days alive and out of hospital, Mean ± SD: 77.7 ± 13.5 days
  Days alive and out of hospital, Median: 82 days
  Patient deaths, %: 5%
  Patient deaths, number: 1
  Patients hospitalized, %: 55%
  Patients hospitalized, number: 12
[9]
  Days alive and out of hospital, Median: 83 days
  Patient deaths, %: 6%
  Patient deaths, number: 3
[10]
  Patients hospitalized, %: 51%
  Patients hospitalized, number: 24
Baseline NYHA class IV, both nesiritide groups, n = 47, p = 0.182 compared with usual care
  Days alive and out of hospital, Mean ± SD: 75.4 ± 16.2 days
Elevated serum creatinine, >2.0 mg/dL
  Days alive and out of hospital compared to usual care alone: statistically significant increase
[11]
  Days alive and out of hospital, Mean ± SD: 75.7 ± 19.0 days
  Days alive and out of hospital, Median: 84 days
  Patient deaths, %: 8%
  Patient deaths, number: 1
  Patients hospitalized, %: 46%
  Patients hospitalized, number: 6
[12]
  Days alive and out of hospital, Mean ± SD: 78.4 ± 9.0 days
  Days alive and out of hospital, Median: 81 days
  Patient deaths, %: 7%
  Patient deaths, number: 1
  Patients hospitalized, %: 57%
  Patients hospitalized, number: 8
[13]
  Days alive and out of hospital, Median: 81 days
  Patient deaths, %: 7%
  Patient deaths, number: 2
Lowest serum creatinine >2.0 mg/dL during 30 days prior to the study, both nesiritide groups, n = 27, p = 0.019 compared with usual care
  Days alive and out of hospital, Mean ± SD: 77.1 ± 14.7 days
[14]
  Patients hospitalized, %: 52%
  Patients hospitalized, number: 14
